Experimental data as given in patent US10188666B2, “Dendrogenin A and antineoplastic agents for the treatment of chemosensitive or chemoresistant tumors” (priority 2013, dated 2019).
pIC50: −log10 of the molar value. Where two headings read alike, the source gives them in different places.

What was measured:
[1] = tested on: KG1 cells; assay: MTT cell viability assay, KG1 cells; assay type: cell-based; details: 48 hours
Protocol: (§1) Briefly, effect of drugs alone and in combinations were determined for a 3-5 log scale of concentrations of drugs and with a constant ratio between the two drugs used for co-treatment. Cells were seeded in 96-well plates (50 000 cell/well). Cells were treated just after seeding, for 48 hours. Cell viability was determined with MTT assay. Cells were centrifuged 5 minutes at 1200 rpm, medium removed, 100 μl of MTT solution (1 mg/ml in PBS) added, incubated for 2 hours at 37° C., centrifuged, MTT solution removed and DMSO (100 μl) added to dissolve purple formazan formed by living cells. Absorbance of the solution was determined at 540 nm.
(§2) HL60, KG1, KG1a and MV4-11 cells were seeded in 96-well plates (50 000 cells/well). Cells were treated just after seeding with increasing doses of daunorubicin, for 48 hours. Cell viability was determined with MTT assay as follows: cells were centrifuged 5 minutes at 1200 rpm, medium removed, 100 μl of MTT solution (1 mg/ml in PBS) added, incubated for 2 hours at 37° C., centrifuged, MTT solution removed and DMSO (100 μl) added to dissolve purple formazan formed by living cells. Absorbance of the solution was determined at 540 nm.
(§3) HL60, KG1, KG1a and MV4-11 cells were seeded in 96-well plates (50 000 cells/well). Cells were treated just after seeding with increasing doses of cytarabine, for 48 hours.
(§4) HL60, KG1, KG1a and MV4-11 cells were seeded in 96-well plates (50 000 cells/well).
(§5) HL60, KG1, KG1a and MV4-11 cells were seeded in 96-well plates (50 000 cells/well). Cells were treated just after seeding with increasing doses of cisplatin, for 48 hours.
(§6) HL60, KG1, KG1a and MV4-11 cells were seeded in 96-well plates (50 000 cells/well). Cells were treated just after seeding with increasing doses of Dendrogenin A, for 48 hours.
(§7) KG1 cells were seeded in 96-well plates (50 000 cells/well).
as §7, §7
KG1 cells were seeded in 96-well plates (50 000 cells/well). Cells were treated just after seeding with increasing doses of Dendrogenin A and Cisplatin, for 48 hours.
as §7
KG1 cells were seeded in 96-well plates (50 000 cells/well). Cells were treated just after seeding with increasing doses of Dendrogenin A and arsenic trioxide, for 48 hours.
as §7

[2] = tested on: KG1a cells; assay: MTT cell viability assay, KG1a cells; assay type: cell-based; details: for sensitivity of KG1a cells compared to KG1 cells (cell viability, in words): single agent
Protocol: as §1, §2, §3, §4, §5, §6
(§8) KG1a cells were seeded in 96-well plates (50 000 cells/well).
as §8
KG1a cells were seeded in 96-well plates (50 000 cells/well). […]

[3] = tested on: MV4-11 cells; assay: MTT cell viability assay, MV4-11 cells; assay type: cell-based; details: for sensitivity of MV4-11 cells (cell viability, in words): single agent
Protocol: as §1, §2, §3, §4, §5, §6
(§9) MV4-11 cells were seeded in 96-well plates (50 000 cells/well).
as §9

[4] = tested on: HL60 cells; assay: MTT cell viability assay, HL60 cells; assay type: cell-based
Protocol: as §1, §2, §3, §4, §5, §6
(§10) HL60 cells were seeded in 96-well plates (50 000 cells/well).
HL60 cells were seeded in 96-well plates (50 000 cells/well). Cells were treated just after seeding with increasing doses of Dendrogenin A and Cisplatin, for 48 hours.
as §10
HL60 cells were seeded in 96-well plates (50 000 cells/well). Cells were treated just after seeding with increasing doses of Dendrogenin A and arsenic trioxide, for 48 hours.
as §10

[5] = tested on: drug sensitive cancer cell line KG1; assay: Cytotoxic activity, Trypan blue counting, KG1 cells; details: for cytotoxic activity of the antineoplastic agent alone: KG1, Daunorubicin 0.05-0.5 μM or cytarabine 0.1-1 μM, 48 hours
Protocol: In a 6-microwell plate was seeded 0.5.10^6 cells of KG1 cell line. […] Then, Daunorubicin (final concentration: 0.05, 0.1, 0.25 and 0.5 μM) or cytarabine (final concentration: 0.1, 0.2, 0.5 and 1 μM) were added to […]. After the cells were cultured for additional 48 hours, culture suspensions were centrifuged and cell pellets were resuspended in the Trypan blue solution (0.25% (w/v) in PBS) and counted in a Malassez cell under a light microscope.

[6] = tested on: chemoresistant cancer cell line KG1a; assay: Cell death induction, Trypan blue counting, KG1a cells; assay type: cell-based; details: 48 hours; for cell death induction by the antineoplastic agent alone: KG1a, Daunorubicin 0.5 μM or cytarabine 1 μM
Protocol: In a 6-microwell plate was seeded 0.5·10^6 cells of KG1a cell line. The same day, Solvant vehicule or different concentrations of Dendrogenin A (final concentrations: 5 and 10 μM) alone or in combination with Daunorubicin (final concentration: 0.5 μM) or cytarabine (final concentration: 1 μM) were added into the well. After 48 hours of incubation, the cells suspensions were centrifuged and cell pellets were resuspended in the Trypan blue solution (0.25% (w/v) in PBS) and counted in a Malassez cell under a light microscope.

[7] = molecular target: cholesterol epoxide hydrolase (Homo sapiens, UniProt Q15125); details: de Medina et al., Nature Communications, 2013; cited from earlier work
Sequence of cholesterol epoxide hydrolase (Q15125 whole entry): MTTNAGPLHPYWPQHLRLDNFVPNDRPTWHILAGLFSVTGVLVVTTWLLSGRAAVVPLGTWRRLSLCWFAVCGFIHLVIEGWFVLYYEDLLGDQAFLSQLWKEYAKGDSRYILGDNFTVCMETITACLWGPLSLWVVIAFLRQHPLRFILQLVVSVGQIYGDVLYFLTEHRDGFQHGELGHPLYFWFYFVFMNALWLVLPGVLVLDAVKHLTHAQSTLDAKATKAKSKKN

[8] = tested on: AML patient cells; assay: Cell death of AML patient samples, Annexin V-FitC/7-AAD flow cytometry; assay type: cell-based; details: Dendrogenin A 5 μM alone, 48 hours
Protocol: In a 6-microwell plate were seeded 0.5.10^6 patient cells. The same day, Solvant vehicle or different concentrations of Dendrogenin A (final concentrations: 5 μM) alone or in combination with Daunorubicin (final concentration: 10 nM) were added into the well. After 48 hours of incubation, the cells suspensions were centrifuged and washed with PBS and cell pellets were resuspended in a labeling solution containing Annexin V-FitC and 7-AAD as described in the kit protocol (Annexin V-FitC/7-AAD staining kit, Roche Applied Science). Cells were then incubated for 15 minutes at room temperature in the dark and analyzed by Facs Flow cytometry.

[9] = Homo sapiens, KG-1, KG1 cell line
[10] = Homo sapiens, KG-1a, KG1a cell line, 48 hours, MTT, read-out: IC 50

Row | SMILES | pIC50 [1, 9] | sensitivity of KG1a cells compared to KG1 cells (cell viability, in words) ([2]; 48 hours, MTT) | pIC50 ([3]; Homo sapiens, MV4-11, 48 h) | sensitivity of MV4-11 cells (cell viability, in words) ([3]; 48 hours, MTT) | pIC50 ([4]; Homo sapiens, HL-60, 48 h) | sensitivity of HL60 cells (cell viability, in words) ([4]; single agent, 48 hours, MTT) | sensitivity of HL60 cells (cell viability, in words) [4] | cytotoxic activity of the antineoplastic agent alone [5] | cell death induction by the antineoplastic agent alone [6] | pIC50 [2, 10] | further results
1 | O=c1[nH]cc(F)c(=O)[nH]1 [5-Fluorouracil] | 3.12 | resistant | 2.67 | more resistant to 5-FU compared to Daunorubicin or Cytarabine | 2.61 | more resistant to 5-FU compared to Daunorubicin or Cytarabine | – | – | – | – | pIC50 ([2]; Homo sapiens, KG-1a, 48 h, heading: IC 50, KG1a cell line, 48 hours, MTT, read-out: IC 50): 5.40
2 | N.N.[Cl][Pt][Cl] [Cisplatin] | – | resistant | – | more resistant to Cisplatin compared to Daunorubicin or Cytarabine | – | – | as sensible to Cisplatin as to Daunorubicin and Cytarabine | – | – | – | pIC50 ([1]; KG1 cell line): 5.48; pIC50 ([2]; KG1a cell line, 48 hours, MTT, read-out: IC 50): 5.02; pIC50 ([3]; MV4-11 cell line, 48 hours, MTT, read-out: IC 50): 5.14; pIC50 ([4]; read-out: IC 50): 5.48
3 | Nc1ccn([C@@H]2O[C@H](CO)[C@@H](O)[C@@H]2O)c(=O)n1 [Cytarabine] | 6.47 | resistant | 6.74 | more sensitive than KG1 cells | 6.80 | more sensitive than KG1 cells | – | sensitive | resistant | 5.82 | –
4 | COc1cccc2c1C(=O)c1c(O)c3c(c(O)c1C2=O)C[C@@](O)(C(C)=O)C[C@@H]3O[C@H]1C[C@H](N)[C@H](O)[C@H](C)O1 [Daunorubicin] | 7.19 | resistant | 7.17 | as sensitive as KG1 cells | 7.21 | – | as sensitive as KG1 cells | sensitive | resistant | – | pIC50 ([2]; Homo sapiens, KG-1a, 48 h): 5.97
5 | CC(C)CCC[C@@H](C)[C@H]1CC[C@H]2[C@@H]3C[C@@H](NCCc4cnc[nH]4)[C@@]4(O)C[C@@H](O)CC[C@]4(C)[C@H]3CC[C@]12C [Dendrogenin A, 5α-hydroxy-6β-[2-(1H-imidazol-4-yl)ethylamino]cholestan-3β-ol] | 5.05 | as sensitive as KG1 cells | – | as sensitive as KG1 or KG1a cells | – | as sensitive as KG1 or KG1a cells | – | – | – | 4.88 | effect on sensibility of KG1 cells to Daunorubicin ([5]; Dendrogenin A 2.5 μM for 24 hours, then Daunorubicin 0.05-0.5 μM for 48 hours): able to increase this sensibility; effect on sensibility of KG1 cells to Cytarabine ([5]; Dendrogenin A 2.5 μM for 24 hours, then cytarabine 0.1-1 μM for 48 hours): able to increase this sensibility; inhibition of cholesterol epoxide hydrolase [7]: selective inhibitor; effect on resistance of KG1a cells to Daunorubicin ([6]; Dendrogenin A 5 and 10 μM with Daunorubicin 0.5 μM): able to abolish this resistance; effect on resistance of KG1a cells to Cytarabine ([6]; Dendrogenin A 5 and 10 μM with cytarabine 1 μM): able to abolish this resistance; cell death rate of tumor cells resistant to Daunorubicin [8]: high or moderate cell death rate; pIC50 ([3]; Homo sapiens, MV4-11 cell line, 48 hours, MTT, read-out: IC 50): 5.14; pIC50 ([4]; Homo sapiens, HL-60, HL60 cell line, 48 hours, MTT, read-out: IC 50): 5.09
